Where “and” joins values, the source holds several entries; their conditions need not be identical. Equal values may be shown once. Read-outs that look alike come from different tables or passages of the source.
How the values were obtained:
HeLa cells [1] = test: DCFH2-DA intracellular ROS assay; assay type: cell-based, human
Description: After 24 h, the cells were incubated with 100 µL of 10 µM DCFH2-DA (Sigma-Aldrich) diluted in Hank’s Balanced Salt Solution (HBSS) at 37 °C for 30 min in the dark. […] At the end of the treatment, cells were washed twice with cold phosphate-buffered saline (PBS), and 200 µL of 1% Triton X-100 in 0.3 M NaOH was added to lyse the cells.

HeLa cells [2] = test: MTT cytotoxicity assay; conditions: 48 h
Description: (§1) Human cervical adenocarcinoma (HeLa), hepatocellular carcinoma (HepG2) and mouse fibroblast (L929) cells were cultured in Dulbecco’s Modified Eagle’s Medium (DMEM) containing 10% fetal bovine serum (FBS), 100 U/mL penicillin G, and 100 μg/mL streptomycin. Human neuroblastoma (SH-SY5Y) cells were maintained in DMEM/F-12 medium with the same supplements. All cultures were incubated at 37 °C in a humidified atmosphere of 5% CO2.
(§2) Cells were seeded in 96-well plates at a density of 5 × 10^3 cells per well in 100 µL of complete DMEM and incubated overnight at 37 °C in a humidified incubator with 5% CO2. […] After 48 h of treatment, 100 µL of MTT solution (0.5 mg/mL in serum-free medium) was added to each well and incubated for an additional 3 h at 37 °C. The supernatant was then removed, and 100 µL of DMSO was added to dissolve the resulting formazan crystals. Absorbance was measured at 570 nm using an EnSight Multimode Microplate Reader (PerkinElmer, Waltham, MA, USA). IC50 values were calculated using nonlinear regression analysis in GraphPad Prism version 9.

[3] = tested on: SH-SY5Y neuroblastoma cells; test: MTT cytotoxicity assay; conditions: 48 h, read-out: IC50 SH-SY5Y
Description: as §1, §2

[4] = Annexin V-FITC/PI apoptosis detection by flow cytometry; conditions: human, HeLa cells
Description: (§3) HeLa cells were seeded in 6-well plates at a density of 3 × 10^5 cells per well in 2 mL of complete DMEM and allowed to adhere overnight. […] Following treatment, cells were harvested by trypsinization and washed twice with 1 mL of cold phosphate-buffered saline (PBS) to remove non-adherent and dead cells. The cell pellets were resuspended in 100 µL of binding buffer and stained with 5 µL of Annexin V-FITC and 5 µL of propidium iodide (PI, 0.05 µg/mL). The staining was performed in the dark at room temperature for 15 min. Apoptotic cell death was quantified by flow cytometry, with early and late apoptotic populations distinguished based on Annexin V-FITC and PI fluorescence signals.

HepG2 cells = test: MTT cytotoxicity assay; conditions: read-out: IC50 HepG2
Description: as §1, §2

L929 fibroblasts = test: MTT cytotoxicity assay; conditions: read-out: IC50 L929
Description: as §1, §2

HEK-293T cells = test: MTT cytotoxicity assay; conditions: read-out: IC50 HEK-293T
Description: as §2

JAK2 = biological target: T1, JAK2 (Homo sapiens, UniProt O60674); test: JAK2 kinase assay (ADP-Glo); assay type: biochemical; conditions: 5 μM ATP, mean ± SEM, read-out: IC50, JAK2 kinase inhibition
T1 construct: purchased Sigma-Aldrich SRP0171
Description: For each reaction, 2.5 ng/μL of JAK2 enzyme (SRP0171, Sigma-Aldrich) was combined with 1 μM of the test compounds or known drugs, 5 μM ATP, and 2 ng/μL of poly(glu·tyr) substrate in a reaction buffer containing 40 mM Tris-HCl (pH 7.5), 20 mM MgCl2, and 0.1 mg/mL BSA. The reaction mixture was incubated at room temperature for 1 h. After incubation, 5 μL of the ADP-Glo reagent was added to each reaction, followed by an additional 40 min incubation. Next, 10 μL of the kinase detection reagent was added, and the reactions were incubated at room temperature for 30 min to convert ADP to ATP. Luminescence, reflecting ATP levels, was measured using an EnSight Multimode Microplate Reader. […] All assays were performed in triplicate, and the resulting data were presented as the relative inhibition (%) of inhibitors compared to the control without any inhibitor, as shown in Equation (1).(1) %Relative inhibition=[positive−negative−sample−negative]/(positive−negative)×100

HeLa cells [5] = test: Annexin V-FITC/PI apoptosis detection by flow cytometry
Description: as §3

[6] = IC50 concentration of the compound
[7] = HeLa, 48 h, at IC50 (SL10 8 µM, SL35 6 µM, ruxolitinib 25 µM)

T1 sequence (O60674 808-1132 limits assumed): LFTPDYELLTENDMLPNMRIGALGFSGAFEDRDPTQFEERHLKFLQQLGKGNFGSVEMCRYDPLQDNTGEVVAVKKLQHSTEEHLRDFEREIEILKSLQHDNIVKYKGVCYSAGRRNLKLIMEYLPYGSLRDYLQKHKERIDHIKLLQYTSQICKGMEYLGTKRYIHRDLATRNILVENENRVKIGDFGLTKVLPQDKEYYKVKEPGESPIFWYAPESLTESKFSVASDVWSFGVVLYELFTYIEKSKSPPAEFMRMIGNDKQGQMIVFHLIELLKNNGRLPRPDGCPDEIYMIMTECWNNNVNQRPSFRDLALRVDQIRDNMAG

| SMILES | IC50 (HeLa cells [2]; read-out: IC50 HeLa, MTT) | IC50 ([3]; MTT) | IC50 (JAK2) | IC50 (HepG2 cells; MTT, 48 h) | IC50 (L929 fibroblasts; MTT, 48 h) | IC50 (HEK-293T cells; MTT) | also measured |
| --- | --- | --- | --- | --- | --- | --- | --- |
| OO [H2O2, hydrogen peroxide, reference compound] |  |  |  |  |  |  | intracellular ROS level relative to control (HeLa cells [1]; 200 µM): approximately 1.7 fold |
| N#CC[C@H](C1CCCC1)n1cc(-c2ncnc3[nH]ccc23)cn1 [Ruxolitinib, reference compound] | 25 ± 1.25 µM |  |  |  |  |  | IC50 (HeLa cells [2]; Homo sapiens, HeLa, read-out: IC50 HeLa, MTT, 48 h): 25 ± 1.3 µM; IC50 ([3]; Homo sapiens, SH-SY5Y): 68.63 ± 0.19 µM; viability at 48 h, 25 µM [4]: 63.5 ± 2.17%; IC50 (HepG2 cells; Homo sapiens, HepG2, 48 h): 34.6 ± 2.56 µM; IC50 (L929 fibroblasts; Mus musculus, L929, 48 h): 80.4 ± 2.33 µM; IC50 (HEK-293T cells; Homo sapiens, HEK-293T): 89.7 ± 1.98 µM |
| COc1ccc(CN2CC3C(=O)OC4CC5(C)CCCC(C)C5(O)C2C43)cc1OC (stereo not drawn) [SL8] | 88.2 µM | 59.6 ± 2.84 µM | 0.0871 ± 0.0026 µM | 42.6 ± 2.14 µM | 92.6 ± 2.87 µM | 90.7 ± 1.61 µM |  |
| CC1CCCC2(C)CC3OC(=O)C(CN4CCN(c5ccccc5)CC4)C3C3OC132 (stereo not drawn) [SL10] | 8.47 ± 0.74 µM | 23.1 µM | 0.0127 µM | 19.7 µM | 25.4 µM | 14.5 ± 0.74 µM | intracellular ROS level relative to control (HeLa cells [1]; [6]): approximately 1.4 fold; early apoptosis (HeLa cells [5]; [7]): 56.39 ± 2.21%; late apoptosis (HeLa cells [5]; [7]): 11.61 ± 0.99%; viable cells (HeLa cells [5]; [7]): 31.30 ± 2.21% |
| CC1CCCC2(C)CC3OC(=O)C(CN4CCN(c5ccc(F)cc5)CC4)C3C3OC132 (stereo not drawn) [SL14] | 13.2 µM | 35.8 ± 2.13 µM | 0.0576 ± 0.0012 µM | 27.5 ± 0.73 µM | 52.8 ± 1.92 µM | 50.9 ± 3.3 µM |  |
| Cc1cccc(N2CCN(CC3C(=O)OC4CC5(C)CCCC(C)C56OC6C43)CC2)c1 (stereo not drawn) [SL31] | 13.7 µM | 24.2 ± 1.69 µM | 0.0893 ± 0.0015 µM | 19.62 ± 0.05 µM | 62.8 ± 3.39 µM | 24.5 ± 1.12 µM |  |
| CC1CCCC2(C)CC3OC(=O)C4CN(CCc5c[nH]c6ccccc56)C(C34)C12O (stereo not drawn) [SL33] | 33.8 ± 2.8 µM | 58.6 ± 0.71 µM | 0.0791 ± 0.0018 µM | 45.28 ± 0.41 µM | 40.5 ± 2.22 µM | 29.3 ± 0.96 µM | IC50 (HeLa cells [2]; read-out: IC50 HeLa, MTT, listed as SLL33): 33.8 ± 2.78 µM |
| CC1CCCC2(C)CC3OC(=O)C(CN4CCN(c5ncccn5)CC4)C3C3OC132 (stereo not drawn) [SL35] | 6.07 ± 0.11 µM | 19.2 µM and 19.3 µM | 0.0217 µM and 0.0216 µM | 13.3 µM | 23.1 µM | 14.6 ± 1.05 µM | intracellular ROS level relative to control (HeLa cells [1]; [6]): around 2.0 fold; viable cells (HeLa cells [5]): 66.19 ± 1.51%; early apoptosis (HeLa cells [5]; [7]): 26.30 ± 1.69%; late apoptosis (HeLa cells [5]; [7]): 5.20 ± 0.34% |
| O=C1O[C@H]([C@@H](O)CO)C(O)=C1O [Vitamin C, L-ascorbic acid, reference compound] |  |  |  |  |  |  | intracellular ROS level relative to control (HeLa cells [1]; 200 µM): about 0.8 fold |

Source: PMC12786078, “Identification of Novel JAK2 Inhibitors from Amino Derivatives of Epoxyalantolactone: In Silico and In Vitro Studies” (International Journal of Molecular Sciences, 2025)
